One may read the IC50 as the concentration needed to halve the response being measured. The term EC50 denotes the concentration that produces a half-maximal response.

The values below come from BindingDB's records for doi:10.1016/j.bmc.2014.04.022 (Tohoku Pharmaceutical University, 2014).

Experiment [1] in a line: Antagonist activity at estrogen receptor in human MCF7 cells assessed as inhibition of estradiol-induced cell proliferation after 5 days by WST-8 assay. A general note: Tetrazolium dyes change colour on reduction, which living cells bring about.
Experiment [2] can be described thus: Agonist activity at estrogen receptor in human MCF7 cells assessed as induction of cell proliferation after 5 days by WST-8 assay.

Consider `CN(C)CCOc1ccc(C23CC4CC(CC(c5ccc(O)cc5)(C4)C2)C3)cc1`, for which the IC50 in experiment [1] came to 1060 nM. In addition, the EC50 in experiment [2] amounted to 16 nM.
